Measured values published in US20080058269A1, “Insulin Releasing Peptides” (priority 2003, published 2008).
Read-outs that look alike come from different tables or passages of the source.

Key:
BRIN-BD11 cells [1] = type: cell-based, rat; conditions: for Insulin-releasing action in the presence of verapamil (in words): 50 μM verapamil, calcium channel blocker; for Insulin-releasing action in cells depolarised with KCl (in words): 30 mM KCl
Method: (§1) Culture of insulin-secreting cells: Clonal rat insulin-secreting BRIN-BD11 cells were cultured in RPMI-1640 tissue culture medium containing 10% (v/v) fetal calf serum, 1% (v/v) antibiotics (100 U/ml penicillin, 0.1 mg/ml streptomycin) and 11.1 mM glucose. The production and characterisation of BRIN-BD11 cells are described elsewhere. Cells were maintained in sterile tissue culture flasks (Corning, Glass Works, UK) at 37° C. in an atmosphere of 5% CO2 and 95% air using LEEC incubator (Laboratory Technical Engineering, Nottingham, UK). In three experimental series using purified peptides from Agalychnis calcarifer, Bombina variegata and Rana saharica cells were cultured overnight with 25 μM forskolin, 10 nM PMA or 0.1 μg/ml pertussis toxin prior to acute tests.
Acute insulin release studies: Insulin release from BRIN-BD11 cells was determined using cell monolayers [McClenaghan N H, Barnett C R, Ah-Sing E, Abdel-Wahab Y H, O'Harte F P, Yoon T W, Swanston-Flatt S K and Flatt P R 1996 Characterization of a novel glucose-responsive insulin-secreting cell line, BRIN-BD11, produced by electrofusion. Diabetes 45 1132-1140]. The cells were harvested with the aid of trypsin/EDTA (Gibco), seeded into 24-multiwell plates (Nunc, Rosklide, Denmark) at a density of […] per well, and allowed to attach overnight. Prior to acute test, cells were preincubated for 40 min at 37° C. in a 1.0 ml Krebs Ringer bicarbonate buffer (115 mM NaCl, 4.7 mM KCl, 1.28 MM CaCl2, 1.2 MM KH2PO4, 1.2 mM MgSO4, 10 mM NaHCO3, 5 g/l bovine serum albumin, pH 7.4) supplemented with 1.1 mM glucose. Test incubations were performed for 20 min at 37° C. using the same buffer supplemented with 5.6 mM glucose in the absence (control) and presence of various venom fractions, peaks (equivalent to approx. 25 μl dried HPLC fraction) or test agents as indicated in the Figures. Cell viability after 20 min test incubations was assessed by modified neutral red assay [Hunt S M, Chrzanowska C, Barnnett C R, Brand H N and Fawell J K 1987 A comparison of in vitro cytotoxicity assays and their application to water samples. Alternatives to Laboratory Animals 15 20-29]. After incubation, aliquots of buffer were removed and stored at −20° C. for insulin radiomnimmunoassay [Flatt P R. and Bailey C J 1981 Abnormal plasma glucose and insulin responses in heterozygous lean (ob/+) mice. Diabetologia 20 573-577].

BRIN-BD11 cells [2] = assay: Acute insulin release from BRIN-BD11 cells cultured overnight with forskolin, PMA or pertussis toxin; type: cell-based, rat; conditions: acute test at 5.6 mM glucose; for Stimulatory effect on insulin secretion in cells cultured overnight with PMA: 10 nM PMA overnight (protein kinase C pathway); for Stimulatory effect on insulin secretion in cells cultured overnight with pertussis toxin: 0.1 μg/ml pertussis toxin overnight (G-protein pathway); for Stimulatory effect on insulin secretion in cells cultured overnight with forskolin: 25 μM forskolin overnight (desensitised cyclic AMP-protein kinase A pathway)
Method: FIG. 8 illustrates the dependence of the stimulatory effects of 1653.2 Da purified peptide (peak 1.10) from Agalychnis calcarifer on intracellular pathways mediated by protein kinase A (forskolin), protein kinase C (PMA) or pertussis toxin-sensitive G-proteins. Legend: Acute effects of the 13 amino acid 1653.2 Da purified peptide (peak 1.10) from Agalychnis calcarifer on forskolin and PMA on insulin secretion from BRIN-BD11 cells cultured overnight in the absence (control) and presence of 25 μM forskolin, 10 nM PMA or 0.1 μg/ml pertussis toxin. Acute incubations were performed at 5.6 mM glucose. Values are the mean ±SEM for 8 separate observations. ***P<0.001 compared with 5.6 mM glucose alone under same culture conditions. ^ΔΔΔp<0.001 compared with respective test reagent following control culture.
FIG. 9 illustrates the dependence of the stimulatory effects of 1641.7 Da, 1662.6 Da, 1619.8 Da and 1650.5 Da purified peptides (peaks 21, 22, 23 and 24) from Bombina variegata on intracellular pathways mediated by protein kinase A (forskolin), protein kinase C (PMA) or pertussis toxin-sensitive G-proteins. Legend: Acute effects of 1641.7, 1662.6, 1619.8 and 1650.5 Da purified peptides (peaks 21, 22, 23 and 24) from Bombina variegata on forskolin and PMA on insulin secretion from BRIN-BD11 cells cultured overnight in the absence (control) and presence of 25 μM forskolin, 10 nM PMA or 0.1 μg/ml pertussis toxin. Acute incubations were performed at 5.6 mM glucose. Values are the mean ±SEM for 8 separate observations. **P<0.001 compared with 5.6 mM glucose alone under same culture conditions. ^ΔP<0.001 compared with respective test reagent following control culture.
FIG. 10 illustrates the dependence of the stimulatory effects of 4920.4 Da and 4801.2 Da purified peptides (peaks 5.1 and 5.4) from Rana saharica on intracellular pathways mediated by protein kinase A (forskolin), protein kinase C (PMA) or pertussis toxin-sensitive G-proteins. Legend: Acute effects of 4920.4 and 4801.2 Da purified peptides (peaks 5.1 and 5.4) from Rana saharica on forskolin and PMA on insulin secretion from BRIN-BD11 cells cultured overnight in the absence (control) and presence of 25 μM forskolin, 10 nM PMA or […] pertussis toxin. Acute incubations were performed at 5.6 mM glucose. Values are the mean ±SEM for 8 separate observations. ***P<0.001 compared with 5.6 mM glucose alone under same culture conditions. ^ΔΔP<0.001 compared with respective test reagent following control culture.
as §1
Acute insulin release studies: Insulin release from BRIN-BD11 cells was determined using cell monolayers [McClenaghan N H, Barnett C R, Ah-Sing E, Abdel-Wahab Y H, O'Harte F P, Yoon T W, Swanston-Flatt S K and Flatt P R 1996 Characterization of a novel glucose-responsive insulin-secreting cell line, BRIN-BD11, produced by electrofusion. Diabetes 45 1132-1140]. The cells were harvested with the aid of trypsin/EDTA (Gibco), seeded into 24-multiwell plates (Nunc, Rosklide, Denmark) at a density of […] per well, and allowed to attach overnight. […]

[3] = Table 9, no addition, 5.6 mM glucose, 8 observations, control 1.69 ± 0.17
[4] = Table 9, peptide plus KCl (30 mM), 5.6 mM glucose, 8 observations
[5] = Table 9, peptide plus verapamil (50 μM), 5.6 mM glucose, 8 observations

Substance | Insulin release (ng/10^6 cells/20 mins) (BRIN-BD11 cells [1]) | Insulin-releasing action in the presence of verapamil (in words) (BRIN-BD11 cells [1]) | Insulin-releasing action in cells depolarised with KCl (in words) (BRIN-BD11 cells [1]) | Insulin secretion (ng/10^6 cells/20 min) (BRIN-BD11 cells [1]; [3]) | Insulin secretion (ng/10^6 cells/20 min) (BRIN-BD11 cells [1]; [4]) | Insulin secretion (ng/10^6 cells/20 min) (BRIN-BD11 cells [1]; [5]) | Stimulatory effect on insulin secretion in cells cultured overnight with PMA (BRIN-BD11 cells [2]) | Stimulatory effect on insulin secretion in cells cultured overnight with pertussis toxin (BRIN-BD11 cells [2]) | Stimulatory effect on insulin secretion in cells cultured overnight with forskolin (BRIN-BD11 cells [2]) | Insulin secretion (ng/10^6 cells/20 min) (BRIN-BD11 cells [1]; Table 8, no addition, 5.6 mM glucose, control 1.68 ± 0.16) | Insulin secretion (ng/10^6 cells/20 min) (BRIN-BD11 cells [1]; Table 8, peptide plus KCl (30 mM), 5.6 mM glucose) | Insulin secretion (ng/10^6 cells/20 min) (BRIN-BD11 cells [1]; Table 8, peptide plus verapamil (50 μM), 5.6 mM glucose) | Insulin release (ng/10^6 cells/20 mins) (BRIN-BD11 cells [1]; peptides from Agalychnis calcarifer, 5.6 mM glucose, no-peptide control 1.71 ± 0.12)
Pyr-DSFGNQWARGHFM-amidated (HELM PEPTIDE1{[Glp].D.S.F.G.N.Q.W.A.R.G.H.F.M.[am]}$$$$V2.0; SMILES CSCC[C@H](NC(=O)[C@H](Cc1ccccc1)NC(=O)[C@H](Cc1c[nH]cn1)NC(=O)CNC(=O)[C@H](CCCNC(=N)N)NC(=O)[C@H](C)NC(=O)[C@H](Cc1c[nH]c2ccccc12)NC(=O)[C@H](CCC(N)=O)NC(=O)[C@H](CC(N)=O)NC(=O)CNC(=O)[C@H](Cc1ccccc1)NC(=O)[C@H](CO)NC(=O)[C@H](CC(=O)O)NC(=O)[C@@H]1CCC(=O)N1)C(N)=O) [Peptide 22, peptide from Bombina variegata, 72% ID to bombesin] | 4.75 ± 0.13 | not affected | clearly evident | 3.23 ± 0.14 | 13.69 ± 1.43ΔΔΔ*** ng/10^6 cells/20 min | 3.05 ± 0.09 | did not affect | did not affect | abolished |  |  |  | 
Pyr-QRLGHQWAVGHLM-amidated (N-terminal pyroglutamate, C-terminal amide) [Peptide 21, peptide from Bombina variegata, (His)^6Bombesin, 93% ID to bombesin] | 4.66 ± 0.24 | not affected | clearly evident | 3.65 ± 0.05 | 13.68 ± 1.42ΔΔΔ*** ng/10^6 cells/20 min | 4.25 ± 0.82 | did not affect | did not affect | abolished |  |  |  | 
RRKPLFPFIPRPK [Peptide 1.10, 13 amino acid 1653.2 Da purified peptide from Agalychnis calcarifer] |  | not affected | clearly evident |  |  |  | did not affect | did not affect | abolished | 2.75 ± 0.12 | 16.45 ± 0.10 ΔΔ*** ng/10^6 cells/20 min | 3.54 ± 0.20 ΔΔ*** ng/10^6 cells/20 min | 2.61 ± 0.11
